This note sets out measurements from ChEMBL document CHEMBL1133215, “Natural and synthetic analogues of actinomycin D as Grb2-SH2 domain blockers” (Bioorg Med Chem Lett, 2000).

Active and inactive are the calls of the source. The calls are words filed in the database; no cut-off is given here.

Holding throughout (type): functional, cell-based
Test [1] addresses Growth factor receptor-bound protein 2 (Mus musculus) (UniProt Q60631). As to the kind of experiment: In vitro inhibitory activity against Shc/Grb2 interactions in B104-1-1 cells at 2 uM.
For test [2] the target is unchanged. As to the kind of experiment: In vitro inhibitory activity against Shc/Grb2 interactions in B104-1-1 cells at 5 uM.
A further test relates to B104. Put plainly: Growth inhibitory activity against B104-1-1 cells; Not active. The following applies: Mus musculus.

Growth factor receptor-bound protein 2 (Mus musculus), sequence (Q60631 whole entry): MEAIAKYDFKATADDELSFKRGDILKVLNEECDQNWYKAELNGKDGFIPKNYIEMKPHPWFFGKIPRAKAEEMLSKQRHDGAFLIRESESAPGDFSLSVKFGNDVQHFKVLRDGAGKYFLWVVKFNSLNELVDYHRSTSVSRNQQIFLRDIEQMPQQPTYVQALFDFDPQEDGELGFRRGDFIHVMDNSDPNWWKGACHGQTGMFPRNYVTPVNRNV

Consider `Cc1c2oc3c(C)ccc(C(=O)N[C@@H]4C(=O)N[C@H](Cc5ccc(O)cc5)C(=O)N5CCC[C@H]5C(=O)N(C)CC(=O)N[C@@H](C(C)C)C(=O)O[C@@H]4C)c3nc-2c(C(=O)N[C@@H]2C(=O)N[C@H](Cc3ccc(O)cc3)C(=O)N3CCC[C@H]3C(=O)N(C)CC(=O)N[C@@H](C(C)C)C(=O)O[C@@H]2C)c(N)c1=O` (stereo in doubt; 1), for which the values for the inhibition in test [1] and in test [2] were 84.3% and 90.7%, respectively. Besides, in the test with B104, the GI50 entry was “inactive”.
On to `Cc1c2oc3c(C)ccc(C(=O)N[C@@H]4C(=O)N[C@H](C(C)C)C(=O)N5CCC[C@H]5C(=O)N(C)CC(=O)N[C@H](Cc5ccc(O)cc5)C(=O)O[C@@H]4C)c3nc-2c(C(=O)N[C@@H]2C(=O)N[C@H](C(C)C)C(=O)N3CCC[C@H]3C(=O)N(C)CC(=O)N[C@H](Cc3ccc(O)cc3)C(=O)O[C@@H]2C)c(N)c1=O` (stereo in doubt; 5), for which the inhibition in test [1] was determined as 3.5%; in test [2], 27.4%. For the same compound, the GI50 result in the test with B104 was “inactive”.
